# Measurements from patent publication US20260102460A1, “NOVEL COMBINATIONS OF ANTIBIOTICS AND NON-ANTIBIOTIC DRUGS EFFECTIVE IN VIVO AGAINST GRAM-POSITIVE BACTERIA, IN PARTICULAR METHICILLIN-RESISTANT S. AUREUS (MRSA)” (EUROPEAN MOLECULAR BIOLOGY LABORATORY, priority 2022, published 2026).
# Experiments:
# MRSA = test: G. mellonella infection model, drug combination therapy; type: in vivo, Galleria mellonella; settings: G. mellonella infected with MRSA isolate resistant to tigecycline, gentamicin 2 μg/ml, ticagrelor 100 μg/ml (FIG. 5e)
# Excerpt: Drug interaction networks in S. aureus, with drugs grouped according to their class (a) or targeted cellular process (b). Unique interactions across both strains tested are considered (i=331). Edge thickness represents the proportion of interactions for each node pair, considering all possible interactions given the number of drugs in each node. Nodes depict the drug class (a) or the targeted cellular process (b), and size is proportional to the number of drugs in the represented class/process. Only interacting drugs are considered (d=62). Synergies, antagonisms and nodes are colored according to FIG. 1. c. Novel and previously reported interactions detected in S. aureus. Interactions are considered known if reported in any S. aureus strain (Supplementary Table 4). d-e. Novel synergies are effective against MRSA clinical isolates in vitro (d) and in vivo in the G. mellonella infection model (e). […] The percentage of surviving larvae after treatment and in the untreated controls was monitored over time. […]
# Larvae of the greater wax moth (Galleria mellonella) at their final instar larval stage were used for evaluation of selected drug combinations to assess their efficacy against MRSA in vivo. […] The survival of Galleria larvae was monitored at the indicated time points by two observers independently. Each strain-drug combination was evaluated in three independent experiments.
# S. aureus USA300 = test: Time-kill experiments; type: cell-based, Staphylococcus aureus; settings: ticagrelor 5 μg/ml, gentamicin 1.5 μg/ml, plated every 30 minutes for 2 hours (FIG. 5d)
# Experimental: Overnight cultures of S. aureus USA300 were diluted 1:100 in 20 ml of TSB medium, incubated for 1 h in flasks at 37° C. with continuous shaking and diluted again 1:100 in 20 ml prewarmed TSB with ticagrelor (5 μg/ml), gentamicin (1.5 μg/ml), their combination or without drugs. 50 μl of serial 10-fold dilutions of cultures were plated on TSA plates every 30 minutes for 2 hours. Cell viability was determined by counting CFUs after plates were incubated overnight in four independent experiments.
# S. aureus Newman = test: Ticagrelor MIC upon purine supplementation; type: cell-based, Staphylococcus aureus; settings: supplementation with adenosine, inosine or their combination; SSM9PR medium with 1% glucose
# Experimental: MICs were tested in all strains for the main screen. Drugs were two-fold serially diluted in 11 concentrations, and 32 no-drug control wells were included in each plate. Experiments were conducted in 384-well plates (ref. 781271 by Greiner BioOne), with a total volume of 30 μl for S. aureus and B. subtilis and 55 μl for S. pneumoniae. Volumes were optimized for each strain to achieve good dynamic range for growth and minimize risk of cross-contamination between wells. Plates were inoculated with a starting optical density at 595 nm (OD595 nm) of 0.01 from an overnight culture. All liquid handling was performed using a Biomek FX liquid handler (Beckman Coulter). Plates were sealed with breathable membranes and incubated at 37° C. OD595 nm was measured every 30 minutes for 14 hours. The MIC was considered as the first concentration at which growth was inhibited. Experiments were conducted in biological duplicates. For the adjuvant screen, antibiotics were tested in S. aureus DSM 20231 at the same concentrations as for the main screen. Non-antibiotics concentrations were selected to fall within therapeutic ranges.
# Ticagrelor (ref. SML2482, Sigma-Aldrich) MIC was measured upon purine supplementation in S. aureus Newman as described above in SSM9PR minimal medium supplemented with 1% glucose79, in 384-well plates (ref. 781271 by Greiner BioOne) with a final volume of 30 μl. […]
structure (smiles),measurement,setting,value
CCCSc1nc(N[C@@H]2C[C@H]2c2ccc(F)c(F)c2)c2nnn([C@@H]3C[C@H](OCCO)[C@@H](O)[C@H]3O)c2n1 [ticagrelor],interaction with gentamicin in vivo (survival of infected larvae),MRSA,evident
same,interaction with gentamicin in vivo (survival of infected larvae),MRSA; listed as Ticagrelor,synergizes
same,interaction with gentamicin at killing level (CFU over time),S. aureus USA300,evident
same,interaction with gentamicin at killing level (CFU over time),S. aureus USA300; listed as Ticagrelor,synergizes
same,change of MIC upon purine supplementation,S. aureus Newman,increased
